Experimental findings from ChEMBL document CHEMBL3826954, “Structure-Guided Discovery of Selective Antagonists for the Chromodomain of Polycomb Repressive Protein CBX7” (ACS Med Chem Lett, 2016) are described below.

Activity calls are given as the source filed them. No cut-off for these calls is given here.

Data set [1] concerns the target T1, Chromobox protein homolog 7 (Homo sapiens) (UniProt O95931).
T1 sequence (whole entry): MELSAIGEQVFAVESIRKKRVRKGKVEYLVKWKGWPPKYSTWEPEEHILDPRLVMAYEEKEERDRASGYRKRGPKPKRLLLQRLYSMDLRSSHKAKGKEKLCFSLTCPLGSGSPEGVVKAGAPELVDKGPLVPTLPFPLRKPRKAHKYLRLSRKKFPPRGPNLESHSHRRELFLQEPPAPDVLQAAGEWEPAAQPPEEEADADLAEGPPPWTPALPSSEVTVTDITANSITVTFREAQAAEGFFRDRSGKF
Description: Antagonist activity at CBX7ChD (7 to 66 residues) expressed in human PC3 cells assessed as transcriptional derepression of p16INK4a at 50 to 250 uM after 12 hrs by qPCR method. It counts as cell-based. The settings on record: PC-3.

Data set [2] deals with T2, Chromobox protein homolog 7 (Mus musculus) (UniProt Q8VDS3).
T2 sequence (whole entry): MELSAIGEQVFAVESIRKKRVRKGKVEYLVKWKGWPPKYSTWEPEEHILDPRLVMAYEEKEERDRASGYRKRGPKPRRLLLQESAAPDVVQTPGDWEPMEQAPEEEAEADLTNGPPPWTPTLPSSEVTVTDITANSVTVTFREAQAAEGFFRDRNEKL
The data set is described as follows: Antagonist activity at CBX7ChD (7 to 66 residues) expressed in mouse embryonic stem cells assessed as reduction of protein occupancy at Hoxd3 gene locus at 0.5 uM after 18 to 36 hrs by ChIP analysis. It is filed as cell-based.

Data set [3] has as its target T2, Chromobox protein homolog 7 (Mus musculus). Description: Antagonist activity at CBX7ChD (7 to 66 residues) expressed in mouse embryonic stem cells assessed as transcriptional derepression of Hoxd3 at 0.5 uM after 18 to 36 hrs by qPCR method. It is filed as cell-based.
Data set [4] is described as follows: Induction of transcriptional derepression of Gapdh in mouse embryonic stem cells at 0.5 uM after 18 to 36 hrs by qPCR method. Particulars: embryonic stem cell. It counts as cell-based.
Data set [5] addresses T1, Chromobox protein homolog 7 (Homo sapiens). Description: Binding affinity to CBX7ChD (7 to 66 residues) (unknown origin) expressed in RIPL-BL21 (DE3)-CodonPlus competent cells assessed as enhancement of FITC-ANRIL-loopC/FITC-16mer-RNA binding to protein by fluorescence anisotropy assay.
The target of data set [6] is T2, Chromobox protein homolog 7 (Mus musculus). The data set is described as follows: Antagonist activity at CBX7ChD (7 to 66 residues) expressed in mouse embryoid bodies assessed as transcriptional derepression of p16INK4a mRNA levels at 1 to 2 uM after 12 hrs by qPCR method.
Data set [7] has the same target. Description: Antagonist activity at CBX7ChD (7 to 66 residues) expressed in mouse embryonic stem cells assessed as p16INK4a expression levels at 1 to 2 uM after 12 hrs by Western blot analysis. It is filed as cell-based.
The target of data set [8] is T3, Chromobox protein homolog 7 (Homo sapiens, UniProt O95931).
T3 sequence (O95931 whole entry): T1 sequence (whole entry)
The data set is described as follows: Binding affinity to CBX7ChD (7 to 66 residues) (unknown origin) expressed in RIPL-BL21 (DE3)-CodonPlus competent cells assessed as compound/protein/FITC-labeled loop C of ANRIL ternary complex formation by fluorescence anisotropy assay.

The target of data set [9] is T3, Chromobox protein homolog 7. Description: Binding affinity to 15N-labeled CBX7ChD (7 to 66 residues) (unknown origin) expressed in RIPL-BL21 (DE3)-CodonPlus competent cells by HSQC/NMR titration.
Data set [10] deals with T1, Chromobox protein homolog 7 (Homo sapiens). Description: Antagonist activity at CBX7ChD (7 to 66 residues) expressed in human PC3 cells assessed as transcriptional derepression of p16INK4a after 12 hrs by qPCR method. It counts as cell-based. The settings on record: PC-3.
Data set [11] is described as follows: Induction of transcriptional derepression of HIF1a in human PC3 cells at 1 to 5 uM after 12 hrs by qPCR method. It is filed as cell-based. The settings on record: pc-3, 12 h.
The target of data set [12] is T2, Chromobox protein homolog 7 (Mus musculus). The data set is described as follows: Antagonist activity at CBX7ChD (7 to 66 residues) expressed in mouse embryonic stem cells assessed as transcriptional derepression of noggin at 0.5 uM after 18 to 36 hrs by qPCR method. It is filed as cell-based.
The target of data set [13] is T3, Chromobox protein homolog 7. The data set is described as follows: Binding affinity to CBX7ChD (7 to 66 residues) (unknown origin) expressed in RIPL-BL21 (DE3)-CodonPlus competent cells in presence of FITC-labeled SETDB1-K1170me3/H3K27me3/ANRIL-LoopC RNA by fluorescence anisotropy assay.

As to `COc1cccc(C(=O)N2CCN(C(=O)COc3ccc(NC(C)=O)c(C)c3)CC2)c1OC`, in [1], the inhibition result was “inactive”.
For `Cc1ccccc1Cn1c(=N)n(CC(O)c2ccc(Cl)c(Cl)c2)c2ccccc21` (stereo not given), the inhibition result in data set [2], in data set [3], in data set [6], in [7] and in data set [12] was “Active” each time. Moreover, the Activity result in data set [4] is “Non-toxic”; in data set [5] it was “Dose-dependent effect”; in data set [11], “Non-toxic”. In addition, the values for the Kd in data set [8] and in [9] were 23.8 µM and 500 µM, respectively. Besides, the inhibition result in data set [10] was “Dose-dependent effect”.
`CCS(=O)(=O)Nc1c(C)cc(OCC(=O)N2CCN(C(=O)c3cccc(OC)c3OC)CC2)cc1C`: the Ki in [13] stood at 10 µM. Further, the inhibition entry in data set [1] is “inactive”.
For the compound `COc1cccc(C(=O)N2CCN(C(=O)COc3cccc(C)c3)CC2)c1OC`, the inhibitory constant (Ki) in data set [13] came out at 33.1 µM. Moreover, the Kd in [8] was found to be 125 µM. Also, the inhibition entry in [1] is “inactive”.
On to `COc1cccc(C(=O)N2CCN(C(=O)COc3ccc(N)c(C)c3)CC2)c1OC`, for which the Ki in data set [13] came to 39.3 µM.
Still for that read-out and setting: as for `COc1cccc(C(=O)N2CCN(C(=O)COc3cc(C)c(NC(N)=O)c(C)c3)CC2)c1OC`, the figure is 4.8 µM.
On to `COc1cccc(C(=O)N2CCN(C(=O)COc3cc(C)c(N)c(C(C)C)c3)CC2)c1OC`, for which the inhibition result in data set [1] was “inactive”.
The same measure, in the same setting: as for `COc1cccc(C(=O)N2CCN(C(=O)COc3cc(C)c(NS(C)(=O)=O)c(C)c3)CC2)c1OC`, the entry is “inactive”.
For the compound `COc1cccc(C(=O)N2CCN(C(=O)COc3cc(C)c(N)c(C)c3)CC2)c1OC`, in data set [13], the inhibition constant (Ki) was 16.9 µM.
On to `CCS(=O)(=O)Nc1ccc(OCC(=O)N2CCN(C(=O)c3cccc(OC)c3OC)CC2)cc1C`, for which the inhibition constant (Ki) in data set [13] was 25 µM. Further, in data set [1], the inhibition entry was “inactive”.
Consider `COc1cccc(C(=O)N2CCN(C(=O)COc3ccc(NC(N)=O)c(C)c3)CC2)c1OC`, for which the Ki in [13] is 10 µM.
